Results on two molecules are retold here after PMC5104457, “ATP-Competitive MLKL Binders Have No Functional Impact on Necroptosis” (PLoS ONE, 2016).

Usually IC50 stands for the concentration needed to halve the response being measured. In general, EC50 refers to the concentration at which the effect is half-maximal. Low readings indicate an effect from little substance, high ones a need for much substance.

For experiment [1], the system named is RIPK3 phosphorylation of MLKL in 293T cells. Kind of experiment: MLKL phosphorylation assay (MSD), RIPK3-dependent phospho Ser358. The conditions noted are these: 293T cells with GFP-MLKL and RIPK3-mCherry, 30 min compound, normalized to DMSO. It counts as cell-based, human. The procedure: The cDNA clones of human MLKL (RC213152) and human RIPK3 (RC209549) were purchased from Origene. To generate GFP-MLKL and RIPK3-mCherry, coding sequences of the corresponding cDNA sequences were PCR amplified and cloned into Biogen’s mammalian expression vector.
293T cells grown in 10 cm plates were transfected with GFP-MLKL alone or both GFP-MLKL and RIPK3-mCherry plasmids. After 24 hours, cells were harvested and replated into poly D lysine coated 96W plate with 20,000 cells/ml. Four hours later, cells were treated with MLKL compounds for 30 min and incubated at 37°C. Thirty minutes later, the media was removed and cells were lysed in 150μl of Cell lysis buffer (Cell Signaling, MA) containing both protease and phosphatase inhibitors. The lysates were transferred to 96 well MSD plates (Meso Scale Discovery, MD) that were precoated with anti-mouse MLKL antibody H00197259-M02, 3B2, Novus Biologicals, CO), and incubated overnight at 4°C. After washing the plates three times with 1x MSD wash buffer (50mM TRIS-HCl, 150mM NaCl, 0.02% Tween 20, pH7.5), 100 μl of 0.5μg/ml of rabbit-anti-MLKL phospho Ser358 (Abcam AB187091) was added to each well. The plates were incubated for 2 hours at room temperature. After three washes with MSD wash buffer, 100 μ l of 0.5ug/ml of SULFO-tag labeled anti-rabbit IgG was added to each well and incubated for 1 hour at room temperature. After three washes, 1x Read bufferT (Meso Scale Discovery, MD) was added and the electrochemiluminescence (ECL) was measured with a MSD Sector Imager 600.

For the next experiment, the target named is T1, pseudokinase MLKL-1 (Homo sapiens, UniProt Q8NB16).
T1 construct: sub-cloning residues 191 to 471 of the pseudokinase domain of human MLKL cDNA; His6 (thrombin cleavable) (N); made in house; host or cells: Escherichia coli BL21 (DE3)
T1 sequence (Q8NB16 191-471): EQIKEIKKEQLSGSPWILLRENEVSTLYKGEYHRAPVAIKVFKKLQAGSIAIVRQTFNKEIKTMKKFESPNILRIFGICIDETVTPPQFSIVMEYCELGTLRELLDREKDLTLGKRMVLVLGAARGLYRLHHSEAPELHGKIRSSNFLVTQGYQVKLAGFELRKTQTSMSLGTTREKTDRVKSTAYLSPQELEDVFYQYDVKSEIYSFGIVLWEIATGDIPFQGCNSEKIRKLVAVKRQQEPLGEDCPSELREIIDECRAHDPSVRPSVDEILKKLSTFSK
Description: Differential scanning fluorimetry (thermal shift), MLKL pseudokinase domain. In kind it is binding. Particulars: 10 μM compound, 1 μM protein, average of triplicates; read-out: MLKL Pseudo-kinase thermal shift at 10 μM. The source says:
MLKL-1 was constructed by sub-cloning residues 191 to 471 of the pseudokinase domain of human MLKL cDNA into a pET15b vector with a thrombin cleavable N-terminal six histidine fusion tag (His-MLKL-1). MLKL-2 had the same protein boundaries and fusion tag system as MLKL-1 but the dual mutations E366A and K367A were introduced using site directed mutagenesis and was expressed in the same vector (His-MLKL-2).
(§1) To measure the thermal stabilization of the proteins upon compound binding we employed differential scanning fluorimetry (DSF). The kinase domain of RIPK1 and the N-terminal domain HSP90α were expressed and purified as previously described. The pseudokinase MLKL-1, RIPK1 and Hsp90 were melted at 1μM final concentrations in 25mM HEPES pH 8.0, 250mM NaCl and 2.5mM DTT. Compounds were added to a final concentration of 10 μ M with a final DMSO concentration of 5%. The complexes were incubated on ice for 30 minutes. Protein Thermal Shift dye (Life Technologies) was added to 1X. The fluorescence intensities were measured using a Quantstudio real-time PCR system (Life Technologies) with excitation at 470 nm and emission at 586 nm. The samples, measured in triplicate, were heated from 25 to 85°C with a heating rate of […].
A general note: Differential scanning fluorimetry follows unfolding on heating by fluorescence.

In a further experiment the target is T2, kinase domain of RIPK1 (Homo sapiens, UniProt Q13546).
T2 construct: The kinase domain of RIPK1; made in house
T2 sequence (Q13546 17-289 limits assumed): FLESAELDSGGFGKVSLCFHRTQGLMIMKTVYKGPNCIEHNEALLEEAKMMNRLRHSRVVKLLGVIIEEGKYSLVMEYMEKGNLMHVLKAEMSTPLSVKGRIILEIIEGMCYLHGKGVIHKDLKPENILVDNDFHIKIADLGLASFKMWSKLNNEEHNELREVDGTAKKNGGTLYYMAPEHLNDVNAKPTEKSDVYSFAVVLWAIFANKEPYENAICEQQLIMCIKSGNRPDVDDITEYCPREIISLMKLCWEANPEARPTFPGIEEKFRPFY
Kind of experiment: Differential scanning fluorimetry (thermal shift), RIPK1 kinase domain. It counts as binding. The conditions noted are these: 10 μM compound, 1 μM protein, average of triplicates. The procedure: as §1

For the next experiment, the system named is FADD (-/-) Jurkat cells. Description: Necroptosis assay: rescue from TNF-α induced cell death. It counts as cell-based. Particulars: Homo sapiens; for IC50: read-out: Necroptosis cell IC50. As to the method: Necroptosis assays were performed at Charles River Laboratories (United Kingdom) and at Biogen. […] On the day of the experiment, cells were counted using Nexcelom Bioscience Cell Meter Vision and pelleted by centrifugation. Cell pellets were resuspended in fresh medium at 500,000 cells per mL and transferred to assay-ready compound plates prepared in 384-well white TC plates (Greiner #781080) at 20μl cells per well. Cells and compound were incubated at room temperature for 30 minutes followed by +/- stimulation with 15ng/ml TNF-α (Cell signalling Technologies #8902LF) overnight at 37°C. In the morning, plates were equilibrated to room temperature for 30 minutes and 25μl of CellTiter-Glow (CellTiter-Glo 2.0 Assay, Promega # G9243) diluted 1:4 in PBS was added to each well and allowed to incubate for 10 minutes at room temperature. Luminescence was read on an Envision plate reader (Perkin Elmer).
TNF-α added to these cells induces necroptosis or cell death. The term “Rescue” refers to the ability of a compound to prevent loss of cell viability in the presence of TNF. Definitions of the presence or absence of compound or TNF stimulation in the wells that were used to calculate degree of rescue or viability is defined in Table 1.
100% percent rescue is defined as the value of the “no TNF” wells minus the value of wells treated with “TNF”.
Percent Rescue is then the ratio of the intensity value of the experimental “well” minus the value of “TNF” treated wells divided by the overall difference between the value of “no TNF” treated wells and the value of “TNF” treated wells.
%rescue=((well - TNF)/(no TNF - TNF))x100

The next experiment concerns 403 non-mutant kinases. Kind of experiment: DiscoverX kinase selectivity panel. It counts as binding. Particulars: 1 μM compound. An excerpt: We then characterized several compounds that were expected to bind to MLKL across a broad panel of 403 non-mutant kinases at DiscoverX.

Like-named read-outs stand apart in the source and are kept apart here.

As for `CN(c1ccc(NC(=O)Nc2ccc(OC(F)(F)F)cc2)cc1)c1ccnc(Nc2cccc(S(N)(=O)=O)c2)n1` [cpd 1, reference compound], in experiment [1] (listed as Cpd 1), the “effect on RIPK3-dependent phosphorylation of MLKL (phospho Ser358, in words)” value is on record as “does not impact its phosphorylation”. Also, the ΔTm at 10 µM at pseudokinase MLKL-1 and at kinase domain of RIPK1 was 5 to 6 °C each time. Also, in the experiment on FADD (-/-) Jurkat cells (Jurkat), the IC50 was 1850 nM. The half-maximal effective concentration (EC50) with FADD (-/-) Jurkat cells (FADD deficient Jurkat cells, TNF stimulation) was found to be 1850 nM. For the same molecule, the “number of kinases inhibited out of 403” value in the experiment with 403 non-mutant kinases stood at 56.
Regarding `Nc1nccnc1C(=O)O[C@@H](C(=O)Nc1ccc(F)cc1)c1ccccc1` [cpd 4, 3-Amino-pyrazine-2-carboxylic acid (R)-(4-fluorophenylcarbamoyl)-phenyl-methyl ester], in experiment [1], the “effect on RIPK3-dependent phosphorylation of MLKL (phospho Ser358, in words)” value is reported as “does not impact its phosphorylation”. Further, the ΔTm at 10 µM is 4 °C on pseudokinase MLKL-1 and -0.15 °C at kinase domain of RIPK1. Besides, the IC50 in the experiment with FADD (-/-) Jurkat cells (FADD deficient Jurkat cells, TNF-α 15 ng/ml overnight, average of duplicates) was more than 40000 nM. In addition, the “number of kinases inhibited out of 403” value with 403 non-mutant kinases was 1; with 403 non-mutant kinases (listed as Cpd 4) it was “none”.
